# According to patent US20100087475A1, “PHARMACEUTICAL COMPOUNDS” (Biovali Laboratories International (Barbados) S.R.L., priority 2008, published 2010):
# Key:
# Sigma σ2 Receptor = target: T1, Sigma σ2 Receptor (Rattus norvegicus, UniProt Q5U3Y7); assay: Radioligand binding, [3H] Ifenprodil, brain; set-up: species or system Wistar rat; conditions: compound at 10 μM
# T1 construct: Source: Wistar rat brain; from tissue; host or cells: Wistar rat brain
# T1 sequence (Q5U3Y7 1-176): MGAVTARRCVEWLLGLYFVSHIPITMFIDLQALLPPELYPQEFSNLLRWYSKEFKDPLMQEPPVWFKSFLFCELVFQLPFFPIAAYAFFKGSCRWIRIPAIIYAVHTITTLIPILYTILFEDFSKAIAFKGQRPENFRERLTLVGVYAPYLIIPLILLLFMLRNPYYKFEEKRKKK
# Description: Compounds of the invention were subjected to specific binding assays to test their ability to bind to the receptors and transporter proteins described below.
# • Reference: Hashimoto et al., Eur. J. Pharmacol., 236:159-163, (1993) • Source: Wistar rat brain • Ligand: 3 nM [3H] Ifenprodil • Vehicle: 1% DMSO • Incubation time/Temp: 60 minutes @ 37° C. • Incubation buffer: 50 mM Tris-HCl, pH 7.4 • Non Specific ligand: 10 μM Ifenprodil • Kd: 4.8 nM • Bmax: 1.3 pmole/mg protein • Specific binding: 85% • Quantitation method: Radioligand binding • Significance criteria: ≧50% of maximum stimulation or inhibition
# dopamine receptors = assay: Receptor binding studies, overall statement on dopamine receptors; set-up: species or system Human; conditions: conclusion from % inhibition at 10 μM
# Description: (d) Dopamine D1 Receptor:
# • Reference: Dearry et al., Nature, 347:72-76, (1990) • Source: Human recombinant CHO cells • Ligand: 1.4 nM [3H] SCH-23390 • Vehicle: 1% DMSO • Incubation time/Temp: 2 hours @ 37° C. • Incubation buffer: 50 mM Tris-HCl, pH 7.4, 150 mM NaCl, 1.4 mM ascorbic acid, 0.001% BSA • Non Specific ligand: 10 μM (+)-butaclamol • Kd: 1.4 nM • Bmax: 0.63 pmole/mg protein • Specific binding: 90% • Quantitation method: Radioligand binding • Significance criteria: ≧50% of maximum stimulation or inhibition
# (e) Dopamine D2L Receptor:
# • Reference: Grandy et al., Proc. Natl. Acad. Sci. USA, 86:9762-9766 (1989) • Source: Human recombinant CHO cells • Ligand: 0.16 nM [^3H]
# (f) Dopamine D2S Receptor:
# (g) Dopamine D3 Receptor:
# • Reference: Sokoloff et al., Nature, 347:146-151, (1990) • Source: Human recombinant CHO cells • Ligand: 0.7 nM [3H]
# (h) Dopamine D4.2 Receptor:
# • Reference: Van Tol et al., Nature, 350:610-614 (1991) • Source: Human recombinant CHO-K1 cells • Ligand: 0.5 nM [^3H]
# (i) Dopamine D4.4 Receptor:
# • Reference: Van Tol et al., Nature, 350:610-614 (1991) • Source: Human recombinant CHO-K1 cells • Ligand: 1.2 nM [^3H]
# (j) Dopamine D4.7 Receptor:
# • Reference: Van Tol et al., Nature, 350:610-614 (1991) • Source: Human recombinant CHO-K1 cells • Ligand: 1.5 nM [^3H]
"inhibition at 10 µM (Sigma σ2 Receptor; read-out: % inhibition, (n) σ2 Receptor)","% inhibition, (n) σ2 Receptor (Sigma σ2 Receptor; 10 µM)",inhibition of dopamine receptors (result in words) (dopamine receptors),Compound
31%,–,–,"COc1cc2c(cc1O)[C@@H]1C[C@@H](O)[C@H](CC(C)C)CN1CC2 (single isomer, unassigned) [(+)-10-desmethyl-γ-dihydrotetrabenazine]"
–,32%,potent inhibitor of dopamine receptors,"COc1cc2c(cc1O)[C@@H]1C[C@@H](O)[C@H](CC(C)C)CN1CC2 (single isomer, unassigned) [(−)-10-desmethyl-γ-dihydrotetrabenazine]"
